Test: High Throughput Experimentation (HTE) solubility screen, solvent/heptane mixtures for crystallization
Type: physicochemical
Details: 20° C., 2-MeTHF
Procedure: A High Throughput Experimentation (HTE) solubility screen was conducted to determine the solvent/anti-solvent combination for the crystallization and align the reaction solvent with the crystallization solvent. Solubility studies of t-Butyl Core at 20° C. were conducted for various percentages of heptane. […] The solubility screen pointed to MTBE/heptane being one example of a useful solvent mixture for crystallization because of its gradual solubility curve.

- solubility of t-Butyl Core (MIBK or IPAc with 80% heptane): 50 mg/mL
- solubility of t-Butyl Core (MIBK or IPAc with 90% heptane): 10 mg/mL
SMILES: CC(C)(C)OC(=O)CC[C@H](NC(=O)CC[C@H](NC(=O)OCc1ccccc1)C(=O)OC(C)(C)C)C(=O)OC(C)(C)C [t-Butyl Core]
